Experimental data as given in PMC6359675, “Functionalization of the Chalcone Scaffold for the Discovery of Novel Lead Compounds Targeting Fungal Infections” (Molecules, 2019).
Several values for one entry are separate records, joined by “and”; a condition that tells them apart may be missing. Equal values may be shown once. Read-outs that look alike come from different tables or passages of the source.

How the values were obtained:
[1] = tested on: C. albicans ATCC 10231; experiment: Agar-invasive hyphal growth (Spider agar assay); format: cell-based, Candida albicans; settings: compounds at IC50 values, three days at 37 °C
Procedure: Aliquots (2 µL) of a suspension of C. albicans ATCC 10231 (5 × 10^5 cells/mL) were spotted onto medium in triplicate and the morphology of growing colonies was observed following three days of incubation at 37 °C. Spider agar plates without chalcones, containing DMSO, served as the control. The presence of filaments at the colony edges was determined using a light microscope under 10× magnification.

[2] = tested on: C. albicans ATCC 10231; experiment: Disruption of preformed mature biofilm (biofilm metabolic activity); format: cell-based, Candida albicans; settings: compounds added to preformed mature biofilm; statistically significant
[3] = tested on: C. albicans ATCC 10231; experiment: In vitro susceptibility testing, microdilution broth (EUCAST), C. albicans control strain; format: cell-based, Candida albicans; settings: Candida albicans; for IC50: ATCC10231, C. albicans ATCC 10231, mean and 95% confidence interval; for inhibition at 100 µM: ATCC10231, C. albicans ATCC 10231, 24 h
Procedure: (§1) The in vitro antifungal activity of the chalcones was evaluated by a microdilution broth method in accordance with the guidelines provided by the EUCAST Edef 7.3 [22]. Briefly, all strains were cultured on Sabauraud dextrose, then inocula, prepared at 0.5 McFarland, were diluted 1:20 in RPMI-1640 medium (Gibco®, ThermoFisher Scientific Inc., Waltham, MA, USA), containing glucose 2%, 0.3% levo-glutamine buffered to pH 7.0 with 0.165 M 3-(N-morpholino)propanesulfonic acid (MOPS) to yield 1-5 × 10^5 cells/mL. A total of 100 µL of the yeast suspension was inoculated in a 96-well microplate and incubated with 100 µL of serially 2-fold dilution of the compound in the range 200–6.25 µM. The following controls were included: yeast suspensions incubated in RPMI-1640 culture medium (positive growth control), or supplemented with dilutions of DMSO, or fluconazole (Sigma-Aldrich, St. Louis, MO, USA) as a commercial drug. To check the background turbidity of reagents and the sterility of the procedure, dilutions of each compound were incubated in RPMI-1640 culture medium, without yeast inoculum. The inoculated plate was incubated at 37 °C for 24 h, and subsequently the optical density at 630 nm was measured by the Multiskan Ascent microplate reader (Thermo Fisher Scientific Inc.). The effectiveness of the compounds was expressed as percent inhibition relative to the positive growth control when the inhibition […] the 50% at 100 µM. The IC50 value was determined by interpolation of the dose–response curves generated by plotting the percentages of growth inhibition, relative to the drug-free control (set to 100% of growth), as a function of the tested concentrations (on a logarithm scale). Statistical analysis was carried out by the nonlinear regression method using GraphPad Prism version 5.0 for Windows (GraphPad Software, San Diego, CA, USA). All assays were performed in triplicate and at least two independent experiments were carried out.

[4] = tested on: C. neoformans; experiment: In vitro susceptibility testing, C. neoformans clinical isolate; format: cell-based; settings: Cryptococcus neoformans; clinical isolate; read-out: IC50 C. neoformans
Description: (§2) The yeasts included in the present study were Candida albicans ATCC 10231 (American Type Culture Collection) and a collection of yeasts recovered from a variety of clinical specimens, i.e., blood, urine, genital swabs, bronchoalveolar lavage, nail specimens, collected at the Microbiology Unit, St. Orsola Malpighi University Hospital, Bologna, Italy. The clinical strain isolates were identified by standard procedures, including colony morphology on chromogenic agar (CHROMagar Candida medium, Becton Dickinson, Heidelberg, Germany) and confirmed by MALDI Biotyper System using matrix-assisted laser desorption ionization–time of flight mass spectrometry (MALDI-TOF MS, Bruker Daltonik, GmbH, Germany).
as §1

[5] = tested on: R. mucilaginosa; experiment: In vitro susceptibility testing, R. mucilaginosa clinical isolate; format: cell-based; settings: clinical isolate; read-out: IC50 R. mucilaginosa
Description: as §2, §1

[6] = tested on: C. krusei; experiment: In vitro susceptibility testing, C. krusei clinical isolate; format: cell-based; settings: Pichia kudriavzevii; clinical isolate; read-out: IC50 C. krusei
Description: as §2, §1

[7] = tested on: C. glabrata; experiment: In vitro susceptibility testing, C. glabrata clinical isolate; format: cell-based; settings: Nakaseomyces glabratus; clinical isolate; read-out: IC50 C. glabrata
Description: as §2, §1

[8] = Cytotoxicity test on Vero cells (WST8/CCK-8 cell viability); format: cell-based, African green monkey; settings: African green monkey, Vero cells (ATCC CCL-81), Vero cells, mean and 95% confidence interval
Procedure: (§3) African green monkey kidney cells (Vero ATCC CCL-81) were cultured in Eagle’s Minimal Essential Medium (MEM) (Sigma-Aldrich), supplemented with 10% fetal bovine serum (FBS) (Carlo Erba Reagents, Milan, Italy), 100 U/mL penicillin, and 100 µg/mL streptomycin at 37 °C with 5% CO2. For experiments, cells were seeded into 96-well plates at 10^4 cells/well, and incubated at 37 °C for 24 h. Following washes with PBS, cell monolayer was incubated with 100 µL of serially 2-fold dilution of the compound in the range 200–6.25 µM. Both untreated cells and cells incubated with medium containing solvent dilutions were included in each experiment as controls.
(§4) The cell viability was assessed by a WST8-based assay according to the manufacturer’s instructions (CCK-8, Cell Counting Kit-8, Dojindo Molecular Technologies, Rockville, MD, USA). After 72 h of incubation, culture medium was removed from each well, the monolayer was washed with PBS, and 100 µL of fresh medium containing 10 µL of CCK-8 solution were added. Following a 2 h at 37 °C, the absorbance was measured at 450/630 nm; data were calculated as the percentage of the cell viability relative to the untreated controls.

[9] = tested on: C. albicans ATCC 10231; experiment: Effect on yeast-to-hyphae transition; format: cell-based, Candida albicans; settings: compound at IC50 value, 2 h
Description: Blastospore and hyphae forms were observed under a light microscope.

[10] = tested on: C. lusitaniae; experiment: In vitro susceptibility testing, C. lusitaniae clinical isolate; format: cell-based; settings: Clavispora lusitaniae; clinical isolate; read-out: IC50 C. lusitaniae
Description: as §2, §1

[11] = tested on: S. clavata; experiment: In vitro susceptibility testing, S. clavata clinical isolate; format: cell-based; settings: clinical isolate; read-out: IC50 S. clavata
Description: as §2, §1

[12] = tested on: C. parapsilosis; experiment: In vitro susceptibility testing, C. parapsilosis clinical isolate; format: cell-based; settings: Lodderomyces parapsilosis; clinical isolate; read-out: IC50 C. parapsilosis
Description: as §2, §1

[13] = tested on: C. albicans; experiment: In vitro susceptibility testing, C. albicans clinical isolate; format: cell-based; settings: Candida albicans; clinical isolate; mean and 95% confidence interval; read-out: IC50 C. albicans
Description: as §2, §1

[14] = tested on: C. utilis; experiment: In vitro susceptibility testing, C. utilis clinical isolate; format: cell-based; settings: Williopsis jadinii; clinical isolate; read-out: IC50 C. utilis
Description: as §2, §1

[15] = tested on: C. tropicalis; experiment: In vitro susceptibility testing, C. tropicalis clinical isolate; format: cell-based; settings: Candida tropicalis; clinical isolate; read-out: IC50 C. tropicalis
Description: as §2, §1

[16] = tested on: Vero cells (ATCC CCL-81); experiment: Cytotoxicity test on Vero cells (WST8/CCK-8 cell viability); format: cell-based, African green monkey; settings: 72 h, up to the highest concentration of 200 μM
Procedure: as §3, §4

Structure (SMILES) | invasion of Spider medium (filamentation) [1] | reduction of metabolism of sessile cells in mature biofilm [2] [%] | IC50 ([3]; read-out: IC50) [µM] | IC50 ([3]; read-out: IC50 [μg/mL]) [µg/mL] | inhibition at 100 µM [3] [%] | IC50 [4] | IC50 [5] | IC50 [6] | IC50 [7] | CC50 at 72 h ([8]; read-out: CC50) [µM] | CC50 at 72 h ([8]; read-out: CC50 [μg/mL]) [µg/mL] | cell morphology after treatment [9] | IC50 [10] | IC50 [11] | IC50 [12] | IC50 [13] | IC50 [14] | IC50 [15] | toxicity on Vero cells, in words [16]
O=C(/C=C/c1cccc(F)c1)c1cc(F)ccc1O [Compound 7, (E)-1-(5-Fluoro-2-hydroxyphenyl)-3-(3-fluorophenyl)prop-2-en-1-one] | unable to penetrate the medium | < 25 | 53 | 13.8 | 69 ± 12.4 | 15.6 µM and 4.1 µg/mL | 80 µM and 20.8 µg/mL | 100 µM and 26 µg/mL | 100 µM and 26 µg/mL | 182 | 47.3 | mainly formed blastospores, some rare budding cells but no hyphae | 31.7 µM and 8.2 µg/mL | 37 µM and 9.6 µg/mL | 100 µM and 26 µg/mL | 32.1 µM and 8.4 µg/mL | 100 µM and 26 µg/mL | > 200 µM and > 52 µg/mL | 
O=C(/C=C/c1ccc(F)cc1)c1cc(Cl)ccc1O [Compound 4, (E)-1-(5-Chloro-2-hydroxyphenyl)-3-(4-fluorophenyl)prop-2-en-1-one] |  |  | 48.9 | 13.5 | 65.6 ± 3.3 | 27.1 µM and 7.5 µg/mL | 81.8 µM and 22.6 µg/mL | 200 µM and 55.3 µg/mL | 200 µM and 55.3 µg/mL | > 200 | > 55.3 |  | 34.6 µM and 9.6 µg/mL | 200 µM and 55.3 µg/mL | > 200 µM and > 55.3 µg/mL | 69.6 µM and 19.3 µg/mL | 96.7 µM and 26.8 µg/mL | 200 µM and 55.3 µg/mL | did not display any toxicity
O=C(/C=C/c1cc(F)cc(F)c1)c1cc(Cl)ccc1O [Compound 5, (E)-1-(5-Chloro-2-hydroxyphenyl)-3-(3,5-difluorophenyl)prop-2-en-1-one] | unable to penetrate the medium | < 25 | 51.3 | 15.1 | 62 ± 1.5 | 5.3 µg/mL and 18 µM | 22.7 µg/mL and 76.9 µM | > 58.9 µg/mL and > 200 µM | > 58.9 µg/mL and > 200 µM | > 200 | > 58.9 |  | 14.1 µg/mL and 47.9 µM | 29.5 µg/mL and 100 µM | 58.9 µg/mL and 200 µM | 29.5 µg/mL and 100 µM | 29.5 µg/mL and 100 µM | > 58.9 µg/mL and > 200 µM | did not display any toxicity
